Data on four compounds can be found in US20060058966A1, “Methods and systems for guiding selection of chemotherapeutic agents” (priority 2004, published 2006).

Common to all, as to type: cell-based, human
Test [1] concerns tumor of patient suffering from ovarian cancer. The experiment in a line: ATP-TCA assay of tumor samples of patient one. Particulars: for Initial Therapeutic Index: tumor response curves ranked by AUC-1, high index = more effective. The method, then: Briefly, the ATP-TCA assay is conducted as follows. First, aseptically obtained solid tumor specimens are dispersed using, e.g. surgical scissors and scalpels. Subsequently, tissue fragments of 0.5 to 2 mm in diameter are enzymatically dissociated into a cell suspension of single cells and small aggregates by incubation for 4-18 h in 5-10 ml sterile collagenase-containing enzyme preparation such as tumor dissociation enzyme preparation, TDE. Commercially available from Atlantic Scientific, Fort Lauderdale, Fla., or from DCS Innovative Diagnostic Systeme GmbH, Hamburg, Germany. Alternatively, tissue fragments are dissociated using 1.5 mg/ml collagenase H (Sigma Chemical, St. Lewis, Mo.) or by mechanical desegregation. (see, […] al., 1997, Anticancer Drugs, 8:756-762) After filtration and ficoll-hypaque density centrifugation, e.g. (Lymphoprep®, ICN Flow, […], Germany; Histopaque, Sigma Chemical, St. […] A serum-free Complete Assay medium (CAM) available from DCS Innovative Diagnostik Systeme GmbH, Hamburg, Germany is added and cell suspensions then are adjusted to a final concentration of 1-2×10^5 viable cells per ml. […] Test drug concentrations (TDC) are prepared directly on the plates by serial 1:2-dilutions of the individual stock solutions. […] Appropriate controls, e.g., one with CAM, i.e., no inhibition control, (MO) and the other with Maximum ATP Inhibitor (MI) instead of the cytostatics, can be used in six wells of every culture plate. Subsequently, a sample, e.g. 100 μl of single cell suspension (i.e., 10,000- 20,000 cells) is added to each well. Cultures are incubated at 37° C. and 95% humidity in a 95% air, 5% CO2 atmosphere. After 5-7 days of incubation, another cytological analysis is performed in untreated MO controls. Subsequently, intracellular ATP is extracted and stabilized. Then 50 μl aliquots of each lysate is then transferred to a liminometer, e.g. a LB-953 liminometer (Berthold, Wildbad, Germany). ATP is measured, e.g. by the “firefly” light reaction after automatically pipetting 55 μl of Luciferin-Luciferase-Reagent (Lu-Lu) to each cell extract. Luminescence response expressed as Relative Light Units (RLU=photons/10) is counted for 10 seconds with a 4 second delay. An ATP standard curve is performed for all assays. […] End assays are also sampled for pathology, proof that the final wells after treatment contain tumor not benign cells. The following illustrates assignment of a Preliminary Rank or Order to a drug(s) or agent(s) based on the results of ATP-TCA assays of patient tumors presented in representative FIGS. 4A-C. All ATP-TCA assays were conducted as described previously herein in detail (see also, e.g., Andreotti et al., 1995, Cancer Res. 55:5276-82; Kurbacher et al., 1996, Breast Cancer Res. Treat., 41:161-70). FIG. 4A illustrates assay results were obtained with samples of a tumor of patient […] suffering from ovarian cancer. The results of an ATP-TCA assay are graphically presented (FIG. 4A) as a plot of (TDC) Test Drug Concentration (%) versus Tumor Growth Inhibition (%) (i.e., ATP test activity/ATP control×100%). (Carboplatin is abbreviated in FIGS. 4A-B as CBDCA.) The tumor response curves presented in FIG. 4A are ranked as described herein as if they were reference data. The numerical measure used is the AUC-I test. […] Alternative, the range from the least to the greatest response can be divided into 10 segments and the curves are assigned to their corresponding segments.

Test [2] has as its system tumor of patient also suffering from ovarian cancer. The experiment in a line: ATP-TCA assay of tumor samples of patient two. Particulars: for Initial Therapeutic Index: indexed as for patient one. The method, then:
Briefly, the ATP-TCA assay is conducted as follows. First, aseptically obtained solid tumor specimens are dispersed using, e.g. surgical scissors and scalpels. Subsequently, tissue fragments of 0.5 to 2 mm in diameter are enzymatically dissociated into a cell suspension of single cells and small aggregates by incubation for 4-18 h in 5-10 ml sterile collagenase-containing enzyme preparation such as tumor dissociation enzyme preparation, TDE. Commercially available from Atlantic Scientific, Fort Lauderdale, Fla., or from DCS Innovative Diagnostic Systeme GmbH, Hamburg, Germany. Alternatively, tissue fragments are dissociated using 1.5 mg/ml collagenase H (Sigma Chemical, St. Lewis, Mo.) or by mechanical desegregation. (see, e.g., Myatt et al., 1997, Anticancer Drugs, 8:756-762) After filtration and ficoll-hypaque density centrifugation, e.g. (Lymphoprep®, ICN Flow, Meckenheim, Germany; Histopaque, Sigma Chemical, St. Louis, Mo.), the quality and viability of resultant single cell suspensions are determined e.g., by trypan blue dye exclusion (0.2% Merck, Darmstadt, Germany) and by subsequent cytological examination. A serum-free Complete Assay medium (CAM) available from DCS Innovative Diagnostik Systeme GmbH, Hamburg, Germany is added and cell suspensions then are adjusted to a final concentration of 1-2×10^5 viable cells per ml.
Drug assays can be performed in 96-well polypropylene microtiter plates (round-bottom). Test drug concentrations (TDC) are prepared directly on the plates by serial 1:2-dilutions of the individual stock solutions. Each drug is tested by continuous exposure in triplicate at a number, e.g., six different concentrations ranging from 6.25% to 200% of test drug concentration.
Subsequently, a sample, e.g. 100 μl of single cell suspension (i.e., 10,000- 20,000 cells) is added to each well. Cultures are incubated at 37° C. and 95% humidity in a 95% air, 5% CO2 atmosphere.
After 5-7 days of incubation, another cytological analysis is performed in untreated MO controls. Subsequently, intracellular ATP is extracted and stabilized. Then 50 μl aliquots of each lysate is then transferred to a liminometer, e.g. a LB-953 liminometer (Berthold, Wildbad, Germany). ATP is measured, e.g. by the “firefly” light reaction after automatically pipetting 55 μl of Luciferin-Luciferase-Reagent (Lu-Lu) to each cell extract. Luminescence response expressed as Relative Light Units (RLU=photons/10) is counted for 10 seconds with a 4 second delay. An ATP standard curve is performed for all assays. MO should be greater than 100 pg/ml ATP. Assays showing mean RLU values of less than 20,000 (MO), a MI/MO-ratio>0.01, or evidence of microbiological contamination are regarded as non-evaluable. End assays are also sampled for pathology, proof that the final wells after treatment contain tumor not benign cells.
All ATP-TCA assays were conducted as described previously herein in detail (see also, e.g., Andreotti et al., 1995, Cancer Res. 55:5276-82; Kurbacher et al., 1996, Breast Cancer Res. Treat., 41:161-70).

The test system of test [3] is tumor of a pancreatic cancer patient. In words: ATP-TCA assay of tumor samples of a pancreatic cancer patient. Particulars: pancreatic cancer sample. The method, then:
Briefly, the ATP-TCA assay is conducted as follows. First, aseptically obtained solid tumor specimens are dispersed using, e.g. surgical scissors and scalpels. Subsequently, tissue fragments of 0.5 to 2 mm in diameter are enzymatically dissociated into a cell suspension of single cells and small aggregates by incubation for 4-18 h in 5-10 ml sterile collagenase-containing enzyme preparation such as tumor dissociation enzyme preparation, TDE. Commercially available from Atlantic Scientific, Fort Lauderdale, Fla., or from DCS Innovative Diagnostic Systeme GmbH, Hamburg, Germany. Alternatively, tissue fragments are dissociated using 1.5 mg/ml collagenase H (Sigma Chemical, St. Lewis, Mo.) or by mechanical desegregation. […] A serum-free Complete Assay medium (CAM) available from DCS Innovative Diagnostik Systeme GmbH, Hamburg, Germany is added and cell suspensions then are adjusted to a final concentration of 1-2×10^5 viable cells per ml. […] Test drug concentrations (TDC) are prepared directly on the plates by serial 1:2-dilutions of the individual stock solutions. […] Subsequently, a sample, e.g. 100 μl of single cell suspension (i.e., 10,000- 20,000 cells) is added to each well. Cultures are incubated at 37° C. and 95% humidity in a 95% air, 5% CO2 atmosphere. After 5-7 days of incubation, another cytological analysis is performed in untreated MO controls. Subsequently, intracellular ATP is extracted and stabilized. Then 50 μl aliquots of each lysate is then transferred to a liminometer, e.g. a LB-953 liminometer (Berthold, Wildbad, Germany). ATP is measured, e.g. by the “firefly” light reaction after automatically pipetting 55 μl of Luciferin-Luciferase-Reagent (Lu-Lu) to each cell extract. Luminescence response expressed as Relative Light Units (RLU=photons/10) is counted for 10 seconds with a 4 second delay. An ATP standard curve is performed for all assays. MO should be greater than 100 pg/ml ATP. […] End assays are also sampled for pathology, proof that the final wells after treatment contain tumor not benign cells. […] All ATP-TCA assays were conducted as described previously herein in detail (see also, e.g., Andreotti et al., 1995, Cancer Res. 55:5276-82; Kurbacher et al., 1996, Breast Cancer Res. Treat., 41:161-70).

On to `Nc1ccn([C@@H]2O[C@H](CO)[C@@H](O)C2(F)F)c(=O)n1` [Gemcitabine, gemcitabine], for which, in test [1], the “activity against this patient's tumor” value was “not significantly active” and the “Initial Therapeutic Index” value was 3. For the same compound, in test [2], the “activity against this patient's tumor” value was “at best moderately active” and the “Initial Therapeutic Index” value came out at 3. For the same compound, in test [3], the “Initial Therapeutic Index” value was 3 and the “activity against this tumor” value is on record as “not significantly active”.

Take `N.N.O=C([O-])C1(C(=O)[O-])CCC1.[Pt+2]` [Carboplatin]: in test [1], the “activity against this patient's tumor” value is given as “single best drug” and the “Initial Therapeutic Index” value was 10. In test [2], the “activity against this patient's tumor” value is reported as “at best moderately active” and the “Initial Therapeutic Index” value is 5.

As to `N.N.[Cl][Pt][Cl]` [DDP, cisplatin], in test [3], the “Initial Therapeutic Index” value turned out to be 2 and the “activity against this tumor” value is listed as “not significantly active”.

Regarding `CC(=O)O[C@H]1C(=O)[C@@]2(C)[C@H]([C@H](OC(=O)c3ccccc3)[C@]3(O)C[C@H](OC(=O)[C@H](O)[C@@H](NC(=O)c4ccccc4)c4ccccc4)C(C)=C1C3(C)C)[C@]1(OC(C)=O)CO[C@@H]1C[C@@H]2O` [Taxol, paclitaxel], in test [1], the “activity against this patient's tumor” value was “not significantly active” and the “Initial Therapeutic Index” value came out at 2. For the same compound, in test [2], the “activity against this patient's tumor” value is recorded as “single best drug” and the “Initial Therapeutic Index” value is 8.
